Results reported in PMC9689838, “Screening and Identification of Novel Soluble Epoxide Hydrolase Inhibitors from Corn Gluten Peptides” (Foods, 2022).
Read-outs that look alike come from different tables or passages of the source. Where a SMILES comes first, the peptide text is derived from it.

Columns and labels:
[1] = system: sEH; details: read-out: IC50, sEH inhibitory activity, cited from earlier work
[2] = molecular target: T1, Human soluble epoxide hydrolase (sEH) (Homo sapiens, UniProt P34913); assay: sEH inhibitory activity assay with fluorescent substrate PHOME; format: biochemical; details: 10 µM PHOME, 40 min, mean ± SD n = 3; for inhibition at 100 µM: peptide 100 µM final, 62.5 ng/mL sEH, 37 °C; for IC50: synthesized peptides 20-100 µM
T1 construct: purchased Cayman Chemical (Ann Arbor, MI, USA)
T1 sequence (P34913 1-555): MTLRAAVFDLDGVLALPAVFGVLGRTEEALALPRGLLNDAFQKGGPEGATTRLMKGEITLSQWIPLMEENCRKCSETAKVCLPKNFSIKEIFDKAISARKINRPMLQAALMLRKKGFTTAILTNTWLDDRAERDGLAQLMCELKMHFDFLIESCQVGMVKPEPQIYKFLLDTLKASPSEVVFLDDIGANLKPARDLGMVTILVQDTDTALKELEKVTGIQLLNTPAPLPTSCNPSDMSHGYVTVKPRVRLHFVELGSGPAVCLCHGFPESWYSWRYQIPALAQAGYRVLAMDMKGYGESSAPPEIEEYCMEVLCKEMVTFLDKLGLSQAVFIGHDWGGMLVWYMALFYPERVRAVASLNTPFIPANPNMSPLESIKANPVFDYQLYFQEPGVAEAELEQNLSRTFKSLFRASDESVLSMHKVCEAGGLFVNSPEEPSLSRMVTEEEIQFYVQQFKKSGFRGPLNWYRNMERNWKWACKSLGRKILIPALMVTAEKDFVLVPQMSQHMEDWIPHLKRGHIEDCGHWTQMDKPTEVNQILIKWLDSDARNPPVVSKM
Method: The effects of the concentrations of the enzyme, substrate, and the hydrolysis time of sEH on PHOME were determined according to the methods reported previously. […] After incubating at 37 °C for 5 to 50 min, the fluorescence intensity was measured at an emission wavelength of 465 nm and an excitation wavelength of 330 nm. Bis-Tris-HCl instead of PHOME was used as the blank control. The reaction rate of the system was calculated as follows:(1) The reaction rate (RFU/min)=St - Ct/t where St (RFU) and Ct (RFU) represent the fluorescence intensity of the sample and blank group at t min, respectively. The t (min) represents the reaction time.
The sEH inhibitory activities of peptides were determined as above described. Briefly, 130 µL of 62.5 ng/mL human sEH solution (final concentrations, dissolved in 25 mM bis-Tris-HCl containing 0.1% BSA, pH 7.0) and 20 µL of peptides (final concentrations: synthesized peptides, 20, 40, 60, 80, and 100 µM; corn gluten peptides, 1, 2, 3, 4, and 5 mg/mL, respectively) were added to 96-well plate followed by adding 50 µL of 10 µM PHOME solution (final concentration, dissolved in 25 mM bis-Tris-HCl containing 0.1% BSA, pH 7.0). After incubating at 37 °C for 5 to 40 min, the fluorescence intensity of the mixture at an emission wavelength of 465 nm and an excitation wavelength of 330 nm was determined. […] The sEH inhibitory activity was calculated as follows:(2) sEH inhibitory activity (%)=C40 - S40/C40 - C0×100% where C40 (RFU) and C0 (RFU) represented the fluorescence intensity of the blank control group at 40 and 0 min, respectively. S40 (RFU) represented the fluorescence intensity of the sample group at 40 min.

[3] = isolated from Capsicum chinense

C[C@@H]1CC[C@]2(C(=O)O)CC[C@]3(C)C(=CC[C@@H]4[C@@]5(C)CC(=O)[C@H](O)C(C)(C)[C@@H]5CC[C@]43C)[C@@H]2[C@]1(C)O [2-oxopomolic acid]
IC50 [1]: 11.4 ± 2.7 µM

N[C@@H](Cc1c[nH]c2ccccc12)C(=O)N[C@@H](CCC(=O)O)C(=O)N[C@@H](Cc1ccc(O)cc1)C(=O)O [WEY] (H-Trp-Glu-Tyr-OH)
inhibition at 100 µM [2]: 70 ± 6.25%
IC50 [2]: 55.4 ± 1.55 µM

N[C@@H](Cc1c[nH]c2ccccc12)C(=O)N[C@@H](Cc1c[nH]c2ccccc12)C(=O)N[C@@H](Cc1ccc(O)cc1)C(=O)O [WWY] (H-Trp-Trp-Tyr-OH)
inhibition at 100 µM [2]: 55.1 ± 2.38%
IC50 [2]: 68.8 ± 7.72 µM

N[C@@H](Cc1c[nH]c2ccccc12)C(=O)N[C@@H](Cc1ccc(O)cc1)C(=O)N[C@@H](Cc1c[nH]c2ccccc12)C(=O)O [WYW] (H-Trp-Tyr-Trp-OH)
inhibition at 100 µM [2]: 60.3 ± 5.6%
IC50 [2]: 70.7 ± 9.9 µM

N[C@@H](Cc1ccc(O)cc1)C(=O)N[C@@H](Cc1ccccc1)C(=O)N[C@@H](Cc1c[nH]c2ccccc12)C(=O)O [YFW] (H-Tyr-Phe-Trp-OH)
inhibition at 100 µM [2]: 57.4 ± 7.62%
IC50 [2]: 96 ± 7.5 µM

N[C@@H](Cc1ccc(O)cc1)C(=O)N[C@@H](Cc1ccccc1)C(=O)N[C@@H](Cc1ccc(O)cc1)C(=O)O [YFY] (H-Tyr-Phe-Tyr-OH)
inhibition at 100 µM [2]: 53 ± 3.09%
IC50 [2]: 94.1 ± 12.9 µM

COc1cc(CNC(=O)CCCC/C=C/C(C)C)ccc1O [capsaicin]
IC50 [1, 3]: 5.6 ± 1.2 µM

C[C@H]1[C@H](C)CC[C@]2(C(=O)O)CC[C@]3(C)C(=CC[C@@H]4[C@@]5(C)C[C@@H](O)[C@H](O)C(C)(C)[C@@H]5CC[C@]43C)[C@H]12 [corosolic acid]
IC50 [1]: 51.3 ± 4.9 µM

COc1cc(CNC(=O)CCCCCCC(C)C)ccc1O [dihydrocapsaicin]
IC50 [1, 3]: 7.3 ± 0.7 µM

CC(C)CNC(=O)/C=C/CCc1ccc2c(c1)OCO2 [dihydropiperlonguminine]
IC50 ([1]; from Scutellaria baicalensis): 7.83 ± 0.52 µM

CC(C)C(=O)Nc1ccc([N+](=O)[O-])c(C(F)(F)F)c1 [flutamide]
IC50 ([1]; from Scutellaria baicalensis): 6.32 ± 0.31 µM

O=c1c(O)c(-c2ccc(O)cc2)oc2cc(O)cc(O)c12 [kaempferol]
IC50 [1]: 31.3 ± 2.6 µM

CCCCC/C=C/C=C/C(=O)NCC(C)C [pellitorine]
IC50 ([1]; from Scutellaria baicalensis): 93.7 ± 4.52 µM

CC(C)CNC(=O)/C=C/C=C/c1ccc2c(c1)OCO2 [piperlonguminine]
IC50 ([1]; from Scutellaria baicalensis): 6.06 ± 0.12 µM

O=c1c(O[C@H]2OC[C@@H](O)[C@@H](O)[C@@H]2O)c(-c2ccc(O)c(O)c2)oc2cc(O)cc(O)c12 [quercetin-3-O-arabinoside]
IC50 [1]: 39.3 ± 3.4 µM

O=c1c(O)c(-c2ccc(O)c(O)c2)oc2cc(O)cc(O)c12 [quercetin]
IC50 [1]: 22.5 ± 0.9 µM

C[C@H]1[C@H](C)CC[C@]2(C(=O)O)CC[C@]3(C)C(=CC[C@@H]4[C@@]5(C)CC[C@H](O)C(C)(C)[C@@H]5CC[C@]43C)[C@H]12 [ursolic acid]
IC50 [1]: 84.5 ± 9.5 µM
